Reference: US5169850A, “N-(dialkylamino)methylene)-substituted pyrazolo(1,5-a)-pyrimidine-3-carboxamides and N-(dialkylamino)methylene-substituted-4,5-dihydropyrazolo-(1,5-a)-pyrimi dine-3-carboxamides” (American Cyanamid Company, priority 1991, dated 1992)
Values joined by “and” are separate entries in the source; they are usually repeats but may differ in a detail not shown here. Equal entries are not always repeated.

Tests used:
[1] = Passive-Avoidance Anoxic-Induced-Amnesia Test; type: in vivo, Swiss-Webster mice; details: vs saline control, active if 30 percent
Excerpt: Another in vivo test associated with decreased neural function in mammals is the Passive-Avoidance Anoxic-Induced-Amnesia Test. This test is used to determine the attenuation of anoxic induced amnesia in mice treated with drug, as compared to saline treated control animals with no drug.
A shock-motivated, single trial, step-through passive avoidance procedure is used. Groups of 25 Swiss-Webster, middle aged mice (9 months of age) are placed singly in the front chamber of a 2-chamber box and are allowed to voluntarily cross into the rear chamber. As soon as the mouse enters the rear chamber, a door automatically traps the animal and a mild electric shock (0.4 mA for 4 seconds) is delivered to its feet. Following the foot shock, the mice are initially placed in an anoxic environment (0 percent oxygen) for 12 seconds, which quickly induces unconsciousness. They are then placed in a hypoxic environment (15 percent oxygen) for four minutes which prolongs the oxygen deprived state, maintaining unconsciousness. All testing is performed 24 hours later, and in all cases the mice appear fully recovered from the previous anoxic/hypoxic treatment. All test compounds are administered intraperitoneally at a dose of 5-200 mg/kg, 30 minutes prior to training and testing. Control animals are injected intraperitoneally only with saline at 0.01 cc/g of body weight.
The latency to enter the rear chamber is recorded for both training and testing. Presumably, the more the animal remembers being shocked, the greater it will inhibit going into the rear chamber and the higher will be its latency to re-enter. An improvement of 30 percent over saline control scores is considered active.

[2] = Mean arterial blood pressure in spontaneously hypertensive rats; type: in vivo, spontaneously hypertensive rats of the Okamoto strain; details: gavage, 100 mg/kg or less, two doses 24 h apart, measured at 28 h; average MABP of rats 160±1.5
Method: Certain of the novel compounds of the present invention are active hypotensive agents at non-toxic doses when administered to mammals. These compounds were tested for hypotensive activity by the method of P. S. Chan and D. W. Poorvin, Clinical and Experimental Hypertension, 1 (6), […] (1979). Male, 16 week old spontaneously hypertensive rats of the Okamoto strain having an average mean arterial blood pressure of 160±1.5 mm of mercury are used in the test. One to three rats are used per test compound. A rat is dosed by gavage with a test compound, suspended in 2 percent pre-boiled starch at a concentration of50 mg/ml, at a dose of 100 mg/kg of body weight or less, with 0.9 percent sodium chloride loading at a dose of 25 ml/kg of body weight. A second identical dose of the test compound, without sodium chloride loading is given 24 hours later. At 28 hours after the initial dose the mean arterial blood pressure is measured by the method of Chan and Poorvin vide supra. The procedure is repeated in a second and third rat when necessary.

[3] = tested on: Brain-Specific Receptors of Rats (3H-benzodiazepine binding); assay: Inhibition of the binding of 3H-benzodiazepine to brain-specific receptors of rats; parameters: species or system rat (male albino, Wistar strain); details: 3H-diazepam or 3H-flunitrazepam, rat cortex P2 fraction, pH 7.4, 30 min in ice; test concentration not given
Excerpt: Still another test utilized for the determination of anxiolytic activity is the measurement of the ability of a test compound to inhibit the binding of tritiated benzodiazepines to brain-specific receptors of mammals. A modification of the method described by R. F. Squires, et al, Nature, 266, No. 21:732 (April, 1977) and H. Mosler, et al, Science, 198:849 (1977) was employed.
Male albino rats (Wistar strain, weighing 150-200 g each) were used. The test compounds were solubilized in N,N-dimethylformamide, acetic acid, ethanol or hydrochloric acid.
Whole cortex of rats was homogenized gently in 20 volumes of ice-cold 0.32 M sucrose, centrifuged twice at 1000 g for 10 minutes and then recentrifuged at 30,000 g for 20 minutes to produce a crude P2 -synaptosomal fraction. The P2 -fraction was either: (1) resuspended in twice the original volume in hypotonic 50 mM Tris.HCl(pH 7.4), or (2) resuspended in one-half of the original volume in hypotonic 10 mM Tris.HCL (pH 7.4) and frozen (-20° C.) until time of use. Frozen P2 preparations were thawed and resuspended in four times the original homogenizing volume at time of assay.
The binding assay consisted of 300 l of the P2 -fraction suspension (0.2-0.4 mg protein), 100 l of test drug and 100 l of 3H-diazepam 91.5 nM, final concentration) or 3H-flunitrazepam (1.0 nM, final concentration )which was added to 1.5 l of 50 mM Tris.HCl (pH 7.4). Non-specific binding controls and total binding controls received […] of diazepam ([…] final concentration) and 100 l of deionized water, respectively, in place of the test compound. Incubation for 30 minutes proceeded in ice and was terminated by filtration, under vacuum, through glass fiber filters. The filters were washed twice with 5 ml of ice-cold 50 mM Tris.HCl (pH 7.4) and placed in scintillation vials. After drying at 50°-60° C. for 30 minutes, 10 ml of diluent was added and the radioactivity determined in a scintillation counter.
Inhibition of binding was calculated by the difference between total binding and binding in the presence of test compound, divided by the total, times 100. Physiological activity can be shown by a test compound that inhibits 3H-benzodiazepine binding by 12 percent or more.

[4] = Protection against clonic seizures caused by pentylenetetrazole; type: in vivo, rats; details: 50 mg/kg, orally or intraperitoneally; pentylenetetrazole 23 mg/kg i.v. at 30 or 60 min
Method: The anti-anxiety properties of the novel compounds of the present invention have been established in a test which indicates anxiolytic activity by the measure of protection from convulsions resulting from the administration of pentylenetetrazole. Single or graded dose levels of the test compounds were administered orally or intraperitoneally in a 2 percent starch vehicle containing 0.5 percent v/v polyethylene glycol and one drop of Polysorbate 80, or distilled water and one drop of Polysorbate 80 to groups of at least four rats. At 30 or 60 minutes, the rats were treated intravenously with pentylenetetrazole at a dose of 23 mg/kg of body weight. This dose is estimated to cause clonic seizures in 99 percent of unprotected rats. The test compounds are considered active if they protect 50 percent or more of the rats from clonic seizures.
It has been reported (R. T. Hill and D. H. Tedeschi, "Animal Testing and Screening Procedures in Evaluating Psychotropic Drugs" in "An Introduction to Psychopharmacology", pp 237-288 (Eds. R. R. Rech and K. E. Moore, Raven Press, New York, 1971)) that there is a high degree of correlation between antagonism of pentylenetetrazole seizures in rats and anti-anxiety effects in higher warm-blooded animals.

[5] = Hypoxic Survival Test; type: in vivo, Royal Hart mice; details: for % Survivors: 30 min before hypoxia, survival after 5 min
Method: A useful in vivo test that measures how effectively central nervous system-acting drugs enhance survival in an hypoxic environment, presumably by improving the ratio of energy supply to demand is known as the Hypoxic Survival Test. […] Drugs are tested by intraperitoneally injecting groups of mice 30 minutes prior to placing them in hypoxic mixture and measuring survival. The rationale of this test is that drugs which enhance survival under hypoxic conditions without concomitant, depression or sedative side effects, may do so by enhancing energy metabolism, or by preserving normal brain function under conditions of reduced energy metabolism. Given the dependence of the brain on a constant supply of energy, drugs which have this property may have many far-reaching therapeutic indications, including recovery from stroke and closed head injury, as well as reducing the deleterious effects of the aging central nervous system. […]
A separate group of 20 mice is injected intraperitoneally with saline solution (0.01 cc/g of body weight) and processed as described above.
Still another group of 20 mice is injected intraperitoneally with 0.125 mg/kg of physostigmine and processed as described above.

CC(=NC(=O)c1cnn2c(-c3cccnc3)ccnc12)N(C)C [N-((Dimethylamino)ethylidene)-7-(3-pyridinyl)pyrazolo(1,5-a)pyrimidine 3-carboxamide]
% Improvement ([1]; 25 mg/kg i.p.): 53%
% Improvement ([1]; 50 mg/kg i.p.): 46%

CN(C)C=NC(=O)c1cnn2c1NCC=C2c1cccnc1 [N-((Dimethylamino)methylene)4,5-dihydro-7-(3-pyridinyl)pyrazolo(1,5-a)pyrimidine-3-carboxamide]
% Improvement ([1]; 50 mg/kg i.p.): 66%
% Improvement ([1]; 100 mg/kg i.p.): 54%
MABP/mmHg (no. of rat) [2]: 113 mmHg
% Inhibition [3]: 32%

Cc1cccc(-c2ccnc3c(C(=O)N=CN(C)C)cnn23)c1 [N-((Dimethylamino)methylene) 7-(3-methylphenyl)pyrazolo(1,5-a)pyrimidine-3-carboxamide]
% of Rats Protected [4]: 50%
% Inhibition [3]: 65%

Cc1cc(-c2ccccc2)n2nc(C)c(C(=O)N=CN(C)C)c2n1 [N-((Dimethylamino)methylene)-2,5-dimethyl-7-phenylpyrazolo(1,5-a)pyrimidine-3-carboxamide]
% Survivors ([5]; 100 mg/kg i.p.): 42%

Cc1nn2c(-c3ccncc3)ccnc2c1C(=O)N=CN(C)C [N-((Dimethylamino)methylene)-2-methyl-7-(4-pyridinyl)pyrazolo(1,5-a)pyrimidine-3-carboxamide]
MABP/mmHg (no. of rat) [2]: 130 mmHg
% Survivors ([5]; 10 mg/kg i.p.): 55%

Cc1nn2c(-c3ccccc3)ccnc2c1C(=O)N=CN(C)C [N-((Dimethylamino)methylene)-2-methyl-7-phenylpyrazolo(1,5-a)pyrimidine-3-carboxamide]
% Improvement ([1]; 5 mg/kg i.p.): 49%
% Improvement ([1]; 10 mg/kg i.p.): 37%
% Improvement ([1]; 25 mg/kg i.p.): 66%
% Improvement ([1]; 50 mg/kg i.p.): 66%
% Inhibition [3]: 18%
% Survivors ([5]; 0.1 mg/kg i.p.): 45%
% Survivors ([5]; 10 mg/kg i.p.): 100%
% Survivors ([5]; 100 mg/kg i.p.): 97%
% Survivors ([5]; 200 mg/kg i.p.): 95%

Cc1cnc2c(C(=O)N=CN(C)C)cnn2c1 [N-((Dimethylamino)methylene)-6-methyl-pyrazolo(1,5-a)pyrimidine-3-carboxamide]
% Survivors ([5]; 10 mg/kg i.p.): 42%
% Survivors ([5]; 50 mg/kg i.p.): 40%
% Survivors ([5]; 100 mg/kg i.p.): 62%
% Survivors ([5]; 200 mg/kg i.p.): 45%

CN(C)C=NC(=O)c1cnn2c(-c3cccnc3)ccnc12 [N-((Dimethylamino)methylene)-7-(3-pyridinyl)-pyrazolo(1,5-a)pyrimidine-3-carboxamide]
% Improvement ([1]; 25 mg/kg i.p.): 33%
% Improvement ([1]; 50 mg/kg i.p.): 33%
% Survivors ([5]; 25 mg/kg i.p.): 80% and 58% and 42%

CN(C)C=NC(=O)c1cnn2c(-c3cccc(C(F)(F)F)c3)ccnc12 [N-((Dimethylamino)methylene)-7-(3-trifluoromethyl)phenyl)pyrazolo(1,5-a)pyrimidine-3-carboxamide]
% Inhibition [3]: 82%

CN(C)C=NC(=O)c1cnn2c(-c3ccccc3)ccnc12 [N-((Dimethylamino)methylene)-7-phenylpyrazolo(1,5-a)-pyrimidine-3-carboxamide]
% Inhibition [3]: 28%

CNC(=O)Oc1ccc2c(c1)[C@]1(C)CCN(C)[C@@H]1N2C [physostigmine, reference compound]
percent of physostigmine treated mice that survive ([5]; 10 percent oxygen, after 5 minutes, control mice 5-20 percent, dose 0.125 mg/kg i.p.): 60-80%
